Columns and labels:
[1] = biological target: Serine/threonine-protein kinase PAK 2 (Homo sapiens) (UniProt Q13177); conditions: Compound concentration 1000.0 nM
[2] = biological target: T1, Alpha-2A adrenergic receptor (Homo sapiens) (UniProt P08913); conditions: Compound concentration 10.0 uM
T1 sequence (whole entry): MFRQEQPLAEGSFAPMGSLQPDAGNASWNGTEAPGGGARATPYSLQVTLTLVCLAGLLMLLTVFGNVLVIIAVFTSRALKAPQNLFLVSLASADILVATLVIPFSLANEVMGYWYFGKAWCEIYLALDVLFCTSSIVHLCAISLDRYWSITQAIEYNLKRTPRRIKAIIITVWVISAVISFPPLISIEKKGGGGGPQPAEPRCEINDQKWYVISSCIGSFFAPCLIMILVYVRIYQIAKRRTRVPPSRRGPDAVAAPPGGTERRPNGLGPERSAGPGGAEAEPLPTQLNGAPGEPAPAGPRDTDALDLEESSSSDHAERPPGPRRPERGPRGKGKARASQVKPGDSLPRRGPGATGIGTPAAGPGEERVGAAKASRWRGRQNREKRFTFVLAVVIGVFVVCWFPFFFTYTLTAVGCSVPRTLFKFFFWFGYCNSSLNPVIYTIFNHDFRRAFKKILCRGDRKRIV

[3] = system: Fibroblast growth factor receptor 3 (Homo sapiens), P22607 [G697C]; conditions: Compound concentration 1000.0 nM
[4] = biological target: Serine/threonine-protein kinase PRP4 homolog (Homo sapiens) (UniProt Q13523); conditions: Compound concentration 1000.0 nM
[5] = biological target: ALK tyrosine kinase receptor (Homo sapiens) (UniProt Q9UM73); conditions: Compound concentration 1000.0 nM
[6] = biological target: T2, Muscle, skeletal receptor tyrosine-protein kinase (Homo sapiens) (UniProt O15146); conditions: Compound concentration 1000.0 nM
T2 sequence (whole entry): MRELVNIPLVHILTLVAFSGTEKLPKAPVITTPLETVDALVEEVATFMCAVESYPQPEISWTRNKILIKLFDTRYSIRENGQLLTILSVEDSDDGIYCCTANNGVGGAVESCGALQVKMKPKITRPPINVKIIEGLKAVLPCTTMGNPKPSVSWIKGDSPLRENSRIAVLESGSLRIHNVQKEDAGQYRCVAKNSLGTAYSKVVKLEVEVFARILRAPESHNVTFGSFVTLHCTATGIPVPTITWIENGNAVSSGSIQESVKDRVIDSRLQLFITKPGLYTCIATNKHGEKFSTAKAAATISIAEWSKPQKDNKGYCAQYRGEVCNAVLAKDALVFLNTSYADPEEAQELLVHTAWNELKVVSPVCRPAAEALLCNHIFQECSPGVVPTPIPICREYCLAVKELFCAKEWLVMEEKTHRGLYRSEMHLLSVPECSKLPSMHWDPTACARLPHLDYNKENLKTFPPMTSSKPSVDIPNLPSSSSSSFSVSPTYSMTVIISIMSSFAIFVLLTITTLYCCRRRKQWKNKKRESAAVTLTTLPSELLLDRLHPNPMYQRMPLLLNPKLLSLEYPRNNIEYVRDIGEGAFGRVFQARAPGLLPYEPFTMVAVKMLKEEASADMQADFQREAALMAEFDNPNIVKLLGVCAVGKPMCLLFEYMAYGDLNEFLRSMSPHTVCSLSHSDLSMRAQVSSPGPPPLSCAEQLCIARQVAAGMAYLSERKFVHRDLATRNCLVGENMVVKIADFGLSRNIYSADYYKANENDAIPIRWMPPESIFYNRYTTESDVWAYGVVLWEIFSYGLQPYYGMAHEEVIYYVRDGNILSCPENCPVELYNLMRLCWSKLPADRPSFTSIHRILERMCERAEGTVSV

[7] = biological target: Protein-tyrosine kinase 6 (Homo sapiens) (UniProt Q13882); conditions: Compound concentration 1000.0 nM
Protein-tyrosine kinase 6 (Homo sapiens), sequence (Q13882 whole entry, looked up): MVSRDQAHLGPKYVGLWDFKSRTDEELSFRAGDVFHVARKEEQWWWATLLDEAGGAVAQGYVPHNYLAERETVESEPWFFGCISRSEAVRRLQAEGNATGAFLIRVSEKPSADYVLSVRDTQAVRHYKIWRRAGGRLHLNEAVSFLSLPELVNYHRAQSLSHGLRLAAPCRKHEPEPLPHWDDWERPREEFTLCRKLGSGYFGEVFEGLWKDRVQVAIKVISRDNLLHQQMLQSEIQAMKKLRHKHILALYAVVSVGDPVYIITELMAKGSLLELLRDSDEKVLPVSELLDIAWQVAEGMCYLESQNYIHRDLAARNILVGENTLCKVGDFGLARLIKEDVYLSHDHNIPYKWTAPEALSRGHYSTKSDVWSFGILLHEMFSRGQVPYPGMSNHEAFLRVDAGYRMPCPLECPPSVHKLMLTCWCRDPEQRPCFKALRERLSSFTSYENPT

[8] = biological target: Tyrosine-protein kinase JAK2 (Homo sapiens) (UniProt O60674); conditions: Compound concentration 1000.0 nM
[9] = biological target: Ribosomal protein S6 kinase alpha-2 (Homo sapiens) (UniProt Q15349); conditions: Compound concentration 1000.0 nM
[10] = biological target: Casein kinase I isoform epsilon (Homo sapiens) (UniProt P49674); conditions: Compound concentration 1000.0 nM
[11] = system: Tyrosine-protein kinase ABL1 (Homo sapiens), P00519 [T315I]; conditions: Compound concentration 1000.0 nM
[12] = biological target: Serine/threonine-protein kinase DCLK1 (Homo sapiens) (UniProt O15075); conditions: Compound concentration 1000.0 nM
Serine/threonine-protein kinase DCLK1 (Homo sapiens), sequence (O15075 whole entry): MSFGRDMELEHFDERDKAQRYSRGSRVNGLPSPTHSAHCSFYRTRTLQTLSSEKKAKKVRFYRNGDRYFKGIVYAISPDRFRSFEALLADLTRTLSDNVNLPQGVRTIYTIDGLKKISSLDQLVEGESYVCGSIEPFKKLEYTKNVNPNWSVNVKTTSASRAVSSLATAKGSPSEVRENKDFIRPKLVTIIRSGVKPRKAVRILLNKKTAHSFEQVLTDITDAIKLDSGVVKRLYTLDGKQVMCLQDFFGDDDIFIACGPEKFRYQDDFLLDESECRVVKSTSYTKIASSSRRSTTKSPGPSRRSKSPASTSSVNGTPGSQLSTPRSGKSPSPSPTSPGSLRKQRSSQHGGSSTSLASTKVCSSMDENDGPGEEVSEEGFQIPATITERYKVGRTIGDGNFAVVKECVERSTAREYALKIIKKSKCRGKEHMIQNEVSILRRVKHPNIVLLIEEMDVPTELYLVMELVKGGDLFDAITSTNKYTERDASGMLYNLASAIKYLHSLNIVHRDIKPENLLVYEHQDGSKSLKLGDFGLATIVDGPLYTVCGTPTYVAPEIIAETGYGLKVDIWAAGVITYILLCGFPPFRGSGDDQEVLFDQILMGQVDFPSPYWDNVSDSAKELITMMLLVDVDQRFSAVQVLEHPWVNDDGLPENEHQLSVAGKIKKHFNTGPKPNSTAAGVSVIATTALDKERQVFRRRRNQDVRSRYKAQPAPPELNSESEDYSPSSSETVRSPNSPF

[13] = biological target: Serine/threonine-protein kinase Nek3 (Homo sapiens) (UniProt P51956); conditions: Compound concentration 1000.0 nM
Serine/threonine-protein kinase Nek3 (Homo sapiens), sequence (P51956 whole entry): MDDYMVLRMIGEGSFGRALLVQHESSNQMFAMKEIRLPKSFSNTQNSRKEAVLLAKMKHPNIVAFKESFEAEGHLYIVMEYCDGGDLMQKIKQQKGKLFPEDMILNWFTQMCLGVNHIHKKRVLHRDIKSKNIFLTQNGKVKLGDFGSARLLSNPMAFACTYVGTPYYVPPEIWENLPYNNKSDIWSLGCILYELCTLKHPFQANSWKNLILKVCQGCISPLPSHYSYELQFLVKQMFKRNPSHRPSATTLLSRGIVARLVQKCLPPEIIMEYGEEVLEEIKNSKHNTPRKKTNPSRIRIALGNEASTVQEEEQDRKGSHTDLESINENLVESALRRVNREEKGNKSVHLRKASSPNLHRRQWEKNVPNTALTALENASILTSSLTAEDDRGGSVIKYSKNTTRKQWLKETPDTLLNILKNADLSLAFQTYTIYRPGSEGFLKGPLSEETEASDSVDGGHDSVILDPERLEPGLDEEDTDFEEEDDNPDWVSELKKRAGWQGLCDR

[14] = biological target: Serine/threonine-protein kinase Nek11 (Homo sapiens) (UniProt Q8NG66); conditions: Compound concentration 1000.0 nM
[15] = system: Tyrosine-protein kinase ABL1 (Homo sapiens), P00519 [E255K]; conditions: Compound concentration 1000.0 nM
[16] = biological target: SNF-related serine/threonine-protein kinase (Homo sapiens) (UniProt Q9NRH2); conditions: Compound concentration 1000.0 nM
SNF-related serine/threonine-protein kinase (Homo sapiens), sequence (Q9NRH2 whole entry): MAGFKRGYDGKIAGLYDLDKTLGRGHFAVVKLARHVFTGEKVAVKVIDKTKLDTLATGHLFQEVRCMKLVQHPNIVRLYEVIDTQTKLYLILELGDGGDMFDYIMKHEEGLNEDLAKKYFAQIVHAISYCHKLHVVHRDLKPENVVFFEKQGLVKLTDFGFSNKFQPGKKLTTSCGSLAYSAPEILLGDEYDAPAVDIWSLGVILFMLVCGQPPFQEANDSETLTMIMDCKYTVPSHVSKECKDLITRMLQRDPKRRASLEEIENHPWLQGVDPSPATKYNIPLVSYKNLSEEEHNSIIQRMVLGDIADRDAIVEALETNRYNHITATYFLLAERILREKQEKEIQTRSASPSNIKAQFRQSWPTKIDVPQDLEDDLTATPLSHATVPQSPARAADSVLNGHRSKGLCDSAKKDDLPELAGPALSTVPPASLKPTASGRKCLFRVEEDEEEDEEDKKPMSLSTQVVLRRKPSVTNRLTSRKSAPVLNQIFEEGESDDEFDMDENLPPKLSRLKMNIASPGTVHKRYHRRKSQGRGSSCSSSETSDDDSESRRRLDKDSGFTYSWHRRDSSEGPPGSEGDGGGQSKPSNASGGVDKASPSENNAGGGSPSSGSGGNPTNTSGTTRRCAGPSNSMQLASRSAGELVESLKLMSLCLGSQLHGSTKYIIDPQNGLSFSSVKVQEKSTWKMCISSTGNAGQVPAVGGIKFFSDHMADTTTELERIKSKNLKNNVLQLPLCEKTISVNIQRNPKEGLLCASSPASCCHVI

[17] = system: Epidermal growth factor receptor (Homo sapiens), P00533 [UNDEFINED MUTATION]; conditions: Compound concentration 1000.0 nM
Epidermal growth factor receptor (Homo sapiens), P00533 [UNDEFINED MUTATION], sequence (P00533 whole entry, looked up, change not shown): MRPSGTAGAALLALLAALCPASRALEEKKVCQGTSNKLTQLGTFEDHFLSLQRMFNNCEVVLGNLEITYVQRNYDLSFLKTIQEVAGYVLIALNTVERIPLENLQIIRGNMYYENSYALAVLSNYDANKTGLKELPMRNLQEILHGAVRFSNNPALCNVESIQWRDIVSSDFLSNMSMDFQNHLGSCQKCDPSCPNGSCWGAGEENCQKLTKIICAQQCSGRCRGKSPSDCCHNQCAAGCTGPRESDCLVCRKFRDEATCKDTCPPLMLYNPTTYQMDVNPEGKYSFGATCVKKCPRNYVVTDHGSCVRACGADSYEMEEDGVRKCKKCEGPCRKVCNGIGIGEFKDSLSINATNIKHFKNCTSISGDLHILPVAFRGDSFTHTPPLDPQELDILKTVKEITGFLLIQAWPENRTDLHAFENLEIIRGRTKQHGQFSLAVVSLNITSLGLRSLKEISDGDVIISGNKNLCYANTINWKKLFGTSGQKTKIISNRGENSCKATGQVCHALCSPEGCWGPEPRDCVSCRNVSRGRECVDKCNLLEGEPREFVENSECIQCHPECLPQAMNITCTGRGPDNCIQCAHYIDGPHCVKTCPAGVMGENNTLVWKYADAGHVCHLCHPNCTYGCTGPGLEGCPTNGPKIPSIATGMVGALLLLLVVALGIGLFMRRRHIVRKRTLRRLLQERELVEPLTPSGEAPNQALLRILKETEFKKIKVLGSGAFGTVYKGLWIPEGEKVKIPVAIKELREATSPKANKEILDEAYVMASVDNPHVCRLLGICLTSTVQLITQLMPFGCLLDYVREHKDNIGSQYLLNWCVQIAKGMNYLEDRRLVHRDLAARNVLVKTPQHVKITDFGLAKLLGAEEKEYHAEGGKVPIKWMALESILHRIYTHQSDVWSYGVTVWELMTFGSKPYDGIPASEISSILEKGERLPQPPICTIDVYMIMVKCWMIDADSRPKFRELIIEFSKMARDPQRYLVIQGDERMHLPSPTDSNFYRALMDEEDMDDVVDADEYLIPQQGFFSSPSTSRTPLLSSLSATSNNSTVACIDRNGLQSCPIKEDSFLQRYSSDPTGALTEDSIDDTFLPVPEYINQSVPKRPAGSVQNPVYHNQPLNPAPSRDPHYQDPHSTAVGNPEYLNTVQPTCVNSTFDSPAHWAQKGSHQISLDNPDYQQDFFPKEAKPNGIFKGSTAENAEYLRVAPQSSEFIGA

[18] = biological target: T3, Serine/threonine-protein kinase Chk1 (Homo sapiens) (UniProt O14757); conditions: Compound concentration 1000.0 nM
T3 sequence (whole entry): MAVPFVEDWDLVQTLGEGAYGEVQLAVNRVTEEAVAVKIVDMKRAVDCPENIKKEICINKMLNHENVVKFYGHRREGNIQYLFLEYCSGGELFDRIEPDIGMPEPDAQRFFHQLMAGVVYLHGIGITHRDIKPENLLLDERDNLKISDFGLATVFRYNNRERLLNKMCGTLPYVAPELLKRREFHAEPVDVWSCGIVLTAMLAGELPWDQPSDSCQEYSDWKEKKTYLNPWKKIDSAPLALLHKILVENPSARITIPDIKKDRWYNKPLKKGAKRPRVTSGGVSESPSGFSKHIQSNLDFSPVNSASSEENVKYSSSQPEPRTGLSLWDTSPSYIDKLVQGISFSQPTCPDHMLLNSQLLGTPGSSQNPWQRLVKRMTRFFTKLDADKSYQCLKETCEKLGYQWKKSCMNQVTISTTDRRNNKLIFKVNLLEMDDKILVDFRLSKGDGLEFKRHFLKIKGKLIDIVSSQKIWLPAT

[19] = biological target: Mitogen-activated protein kinase 3 (Homo sapiens) (UniProt P27361); conditions: Compound concentration 1000.0 nM
Mitogen-activated protein kinase 3 (Homo sapiens), sequence (P27361 whole entry): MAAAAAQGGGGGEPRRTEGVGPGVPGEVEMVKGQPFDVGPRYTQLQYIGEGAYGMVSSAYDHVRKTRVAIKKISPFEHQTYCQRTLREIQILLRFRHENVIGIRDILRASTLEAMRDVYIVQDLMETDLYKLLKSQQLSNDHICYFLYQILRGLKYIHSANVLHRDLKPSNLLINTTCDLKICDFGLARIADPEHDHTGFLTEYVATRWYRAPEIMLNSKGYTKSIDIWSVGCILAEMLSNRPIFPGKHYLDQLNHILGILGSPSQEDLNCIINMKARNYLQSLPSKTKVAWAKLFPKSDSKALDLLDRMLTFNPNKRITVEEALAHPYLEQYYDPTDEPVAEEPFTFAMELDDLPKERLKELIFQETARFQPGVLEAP

[20] = biological target: 5-hydroxytryptamine receptor 1D (Homo sapiens) (UniProt P28221); conditions: Compound concentration 10.0 uM
5-hydroxytryptamine receptor 1D (Homo sapiens), sequence (P28221 whole entry): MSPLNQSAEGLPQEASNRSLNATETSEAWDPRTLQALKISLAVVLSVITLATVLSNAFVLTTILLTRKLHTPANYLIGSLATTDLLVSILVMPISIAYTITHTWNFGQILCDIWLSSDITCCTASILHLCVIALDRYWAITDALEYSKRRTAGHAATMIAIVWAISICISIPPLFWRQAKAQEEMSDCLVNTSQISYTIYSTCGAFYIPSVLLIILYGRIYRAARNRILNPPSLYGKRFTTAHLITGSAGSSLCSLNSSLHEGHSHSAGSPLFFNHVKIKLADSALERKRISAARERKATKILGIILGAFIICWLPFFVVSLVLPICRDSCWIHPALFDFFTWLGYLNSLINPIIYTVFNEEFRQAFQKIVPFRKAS

[21] = biological target: Glycogen synthase kinase-3 alpha (Homo sapiens) (UniProt P49840); conditions: Compound concentration 1000.0 nM

Serine/threonine-protein kinase PAK 2 (Homo sapiens), sequence (Q13177 whole entry): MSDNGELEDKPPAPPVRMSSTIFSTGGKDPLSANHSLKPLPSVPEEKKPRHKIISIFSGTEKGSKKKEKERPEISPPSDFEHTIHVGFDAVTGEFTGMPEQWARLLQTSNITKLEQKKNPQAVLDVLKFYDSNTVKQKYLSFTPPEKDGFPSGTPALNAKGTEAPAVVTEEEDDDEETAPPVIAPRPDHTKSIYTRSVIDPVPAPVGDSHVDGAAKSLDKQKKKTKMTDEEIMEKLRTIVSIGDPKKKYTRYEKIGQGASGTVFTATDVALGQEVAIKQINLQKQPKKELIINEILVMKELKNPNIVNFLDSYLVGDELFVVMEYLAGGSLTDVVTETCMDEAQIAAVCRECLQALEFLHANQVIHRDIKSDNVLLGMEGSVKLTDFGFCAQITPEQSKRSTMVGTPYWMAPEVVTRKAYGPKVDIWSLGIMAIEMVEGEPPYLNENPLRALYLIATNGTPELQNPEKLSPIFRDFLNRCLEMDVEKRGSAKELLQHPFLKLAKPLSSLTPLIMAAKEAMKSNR

CN(C)C(=O)Cn1cc(-c2nc(C3(c4ccc(-c5cnc(N)nc5)cc4)CC3)no2)cn1 [BI 0153]
inactive: residual activity [1] 100% | inhibition [2] 22.4% | residual activity [3] 100% | residual activity [4] 87% | residual activity [5] 77% | residual activity [6] 100% | residual activity [7] 100% | residual activity [8] 65% | residual activity [9] 100% | residual activity [10] 100% | residual activity [11] 82% | residual activity [12] 88% | residual activity [13] 57% | residual activity [14] 90% | residual activity [15] 100% | residual activity [16] 100% | residual activity [17] 100% | residual activity [18] 100% | residual activity [19] 79% | inhibition [20] -3.06% | residual activity [21] 100%

CN(C)C(=O)Cn1cc(-c2nc([C@@](C)(c3ccc(-c4cnc(N)nc4)cc3)C3CC3)no2)cn1 [BI 665915]
inactive: residual activity [1] 90% | inhibition [2] -3.33% | residual activity [3] 89% | residual activity [4] 86% | residual activity [5] 85% | residual activity [6] 100% | residual activity [7] 100% | residual activity [8] 73% | residual activity [9] 100% | residual activity [10] 97% | residual activity [11] 86% | residual activity [12] 71% | residual activity [13] 87% | residual activity [14] 100% | residual activity [15] 95% | residual activity [16] 89% | residual activity [17] 100% | residual activity [18] 85% | residual activity [19] 100% | inhibition [20] -5.95% | residual activity [21] 100%

— ChEMBL document CHEMBL4507276 (2021)
